Results published in PMC4130364, “Kinetics of Mushroom Tyrosinase and Melanogenesis Inhibition by N-Acetyl-pentapeptides” (The Scientific World Journal, 2014).
pIC50, pKi: −log10 of the molar value.

Columns and labels:
B16F10 melanoma cells = assay: Assessment of cellular melanin content (α-MSH-induced melanogenesis); type: cell-based, mouse
Description: Cellular melanin content was determined as described previously. Briefly, 1 × 10^5 B16F10 cells were seeded in 24-well plates and cultured at 37°C and 5% CO2 for 48 h. Subsequently, the cells were treated with 100 nM α-MSH for 24 h, followed by various concentrations (0, 0.1, 0.5, and 1 mg/mL) of Ac-P4 or kojic acid for 24 h. The cells were washed twice with PBS and cell pellets were then dissolved in 100 μL of 1 N NaOH in 10% DMSO, for 1 h at 80°C. The relative melanin content was determined by measuring the absorbance at 405 nm, using the ELISA reader (TECAN, Austria). The melanin content was calculated using the following equation: (Δsample/Δcontrol) × 100%. All determinations were performed in triplicate.

diphenolase = tested on: diphenolase; parameters: method as in PMID 7714722; conditions: ref [40], [41]; cited from earlier work
mushroom tyrosinase [1] = biological target: T1, mushroom tyrosinase (Agaricus bisporus, UniProt C7FF04); assay: Inhibitory effect on mushroom tyrosinase (diphenolase activity, oxidation of L-DOPA); type: biochemical; conditions: for IC50: 1 mM L-DOPA substrate, 25°C, 30 min, means ± SD of three replicates, read-out: IC50 against diphenolase activity of mushroom tyrosinase (converted)
T1 sequence (C7FF04 1-392): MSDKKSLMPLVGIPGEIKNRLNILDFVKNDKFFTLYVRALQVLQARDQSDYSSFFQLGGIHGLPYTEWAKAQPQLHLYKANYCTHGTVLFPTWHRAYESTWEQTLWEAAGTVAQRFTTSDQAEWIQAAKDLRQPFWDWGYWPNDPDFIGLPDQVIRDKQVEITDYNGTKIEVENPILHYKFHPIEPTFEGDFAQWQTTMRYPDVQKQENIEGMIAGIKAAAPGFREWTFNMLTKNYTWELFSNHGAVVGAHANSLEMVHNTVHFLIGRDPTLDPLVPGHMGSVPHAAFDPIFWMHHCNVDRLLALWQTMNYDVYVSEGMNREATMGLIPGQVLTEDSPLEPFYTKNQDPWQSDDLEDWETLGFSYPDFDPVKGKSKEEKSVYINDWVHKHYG
Description: In a 96-well plate, 20 μL of 0, 0.01, 0.05, 0.1, 0.2, 0.5, and 1 mg/mL of N-acetyl-pentapeptides was mixed with 160 μL of 1 mM L-DOPA. After 20 μL of 212.65 μg/mL of mushroom tyrosinase (in 50 mM potassium phosphate buffer) was added, the solutions were incubated at 25°C for 30 min. All experiments were conducted in triplicate. The absorbance was measured at 475 nm by using an ELISA reader (TECAN, Austria). The tyrosinase inhibitory activity was calculated using the following equation: [(Δcontrol − Δsample)/Δcontrol] × 100%. The IC50 value was determined using regression of a constructing dose-response curve at which 50% target activity is lost.

mushroom tyrosinase [2] = biological target: T1, mushroom tyrosinase; assay: Kinetic analysis of tyrosinase inhibition (Lineweaver-Burk plots); type: biochemical; conditions: for Inhibition type: Lineweaver-Burk plot analysis; for K IS: inhibition constant from secondary plot (enzyme-substrate complex); for K IS / pKi: L-DOPA 0.25-4 mM, inhibitor 0, 0.1, 0.2 mg/mL; for pKi: inhibition constant from secondary plot
Description: In a 96-well plate, the kinetic properties of N-acetyl-pentapeptides (20 μL of 0, 0.1, and 0.2 mg/mL) in the inhibition of tyrosinase (20 μL of 212.65 μg/mL) were determined using various concentrations of L-DOPA (160 μL of 0.25, 0.5, 1, 2, and 4 mM) as substrates. The reaction mixture was measured using an ELISA reader at 475 nm for 10 min. All experiments were conducted in triplicate. The inhibition mechanism was assessed using Lineweaver-Burk plots, and the inhibition constants K IS and K I were obtained from second plots of the apparent 1/V max and apparent K m/V max against the inhibitor concentration, respectively, as described by Liao et al..

[3] = biological target: T2, intracellular tyrosinase activity in B16F10 cells (Mus musculus, UniProt P11344); assay: Measurement of intracellular tyrosinase activity (α-MSH-induced); type: cell-based; conditions: B16-F10, 1 mg/ml, 24 h after 100 nM α-MSH
T2 construct: Cell lysate; endogenous in cells; host or cells: B16F10 mouse melanoma cells (BCRC, Hsinchu, Taiwan), α-MSH-stimulated
T2 sequence (P11344 19-533): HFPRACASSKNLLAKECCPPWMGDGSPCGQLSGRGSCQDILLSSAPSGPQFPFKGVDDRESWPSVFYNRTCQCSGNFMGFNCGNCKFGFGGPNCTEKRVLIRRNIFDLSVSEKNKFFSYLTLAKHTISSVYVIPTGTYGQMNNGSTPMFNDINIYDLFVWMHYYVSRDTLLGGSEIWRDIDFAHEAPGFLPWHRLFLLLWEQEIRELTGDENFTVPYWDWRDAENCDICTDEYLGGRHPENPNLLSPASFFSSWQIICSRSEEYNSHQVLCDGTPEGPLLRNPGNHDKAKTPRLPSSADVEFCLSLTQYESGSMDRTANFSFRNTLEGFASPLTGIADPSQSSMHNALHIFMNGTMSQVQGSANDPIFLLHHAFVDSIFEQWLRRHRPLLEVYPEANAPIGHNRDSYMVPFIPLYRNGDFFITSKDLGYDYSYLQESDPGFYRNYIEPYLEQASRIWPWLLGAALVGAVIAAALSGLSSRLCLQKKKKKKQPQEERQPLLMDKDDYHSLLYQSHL
Description: Fig 1. Inhibitory effects of Ac-P4 on α-MSH-induced tyrosinase activity in B16F10 cells. Ac-P4 inhibited α-MSH-induced tyrosinase activity in a dose-dependent manner […]
Measurement of intracellular tyrosinase activity
The cells were seeded in 24-well plates (8 × 10^4 cells/well), and cultured in 37 °C, 5% CO2 for 24 h. Then the cells were treated with 100 nM α-MSH for 24 h and then added Ac-P4 for 24 h. Cells rinsed with PBS twice and lysed with phosphate buffer (pH 6.8) containing 1% Triton X-100 followed by freezing and thawing three times. Centrifugation at 15,000 rpm for 10 min obtained clarified lysates. Cell lysate (90 μL) mixed with fresh prepared L-DOPA (10 μL) at 37 °C for 30 min. Tyrosinase activity was evaluated by the absorbance at 475 nm using an ELISA reader (Tecan, […]
Tyrosinase activity (%) = (△Abssample/△Abscontrol) ×100%.
(also on this page, place not known: (mg/ml)control 0 0.1 0.5 Relative (% control) 0 50 150 200 250 α-MSH + α-MSH - + + + + * 1 of 100 Ac-P4 Tyrosinase activity)
(1 picture or pasted object on this page, not shown here)

B16F10 cells = assay: Cell viability assay (MTT); type: cell-based, mouse; conditions: 0.1 to 1 mg/mL, 24 h
Description: B16F10 cells were cultured in Dulbecco's modified Eagle's medium (DMEM; Gibco Life Technologies, Carlsbad, CA, USA), supplemented with 10% fetal bovine serum, 100 units/mL of penicillin G, 100 μg/mL of streptomycin, and 0.25 μg/mL of amphotericin, and then incubated at 37°C with 5% CO2. The viability of cells treated with N-acetyl-pentapeptides was determined using an MTT assay. Briefly, 3 × 10^4 B16F10 cells were seeded and adhered in 96-well plates. After 24 h, DMEM was removed and 200 μL of various concentrations of fresh DMEM and N-acetyl-pentapeptide solution were added, and the cells were incubated for 24 h. After incubation, the medium was removed, and 100 μL of MTT in PBS solution (0.5 mg/mL) was added to each well, and the cells were incubated for 40 min at 37°C. Subsequently, the MTT solution was removed and 100 μL of DMSO was added to each well, and the plate was gently shaken to dissolve the formazan crystals. The absorbance of each well was measured at 570 nm, using the ELISA reader. All determinations were performed in triplicate.

| Molecule | pIC50 (B16F10 melanoma cells; Mus musculus, B16-F10, B16F10, α-MSH-induced, reillustrated in molarity, read-out: IC50 for inhibitory effect on melanin content) | IC50 (mushroom tyrosinase [1]) | lag time (mushroom tyrosinase [1]; peptide concentration 1 mg/mL) | Inhibition type (mushroom tyrosinase [2]) | K IS (mushroom tyrosinase [2]) | pKi (mushroom tyrosinase [2]) | lag time (mushroom tyrosinase [1]; peptide concentration 0.5 mg/mL (b28 words it as concentrations less than 0.5 mg/mL)) | inhibition at 1000 µg/mL [3] | inhibition at 100 µg/mL (B16F10 melanoma cells; Mus musculus, B16-F10, 0.1 mg/mL, 24 h after 100 nM α-MSH, read-out: inhibitory effect on melanin production) | inhibition at 500 µg/mL (B16F10 melanoma cells; Mus musculus, B16-F10, 0.5 mg/mL, 24 h after 100 nM α-MSH, read-out: inhibitory effect on melanin production) | inhibition at 1000 µg/mL (B16F10 melanoma cells; Mus musculus, B16-F10, 1 mg/mL, 24 h after 100 nM α-MSH, read-out: inhibitory effect on melanin production) | inhibition type on diphenolase (diphenolase) | cytotoxicity in B16F10 cells (B16F10 cells) | inhibitory effect on melanin production (B16F10 melanoma cells; 0.1 mg/mL, 24 h after 100 nM α-MSH) | inhibitory effect on melanin production (B16F10 melanoma cells; 0.5 mg/mL, 24 h after 100 nM α-MSH) | inhibitory effect on melanin production (B16F10 melanoma cells; 1 mg/mL, 24 h after 100 nM α-MSH) | fold stronger than kojic acid in inhibiting melanin formation (B16F10 melanoma cells; ratio of melanin content IC50s (mM)) |
| --- | --- | --- | --- | --- | --- | --- | --- | --- | --- | --- | --- | --- | --- | --- | --- | --- | --- |
| O=c1cc(CO)occ1O [kojic acid, reference compound] | 2.82 | – | – | – | – | – | – | – | 47.2% | 70.6% | 98.6% | mixed-type | – | – | – | – | – |
| Ac-RSRFK-OH [Ac-P1, Ac-RSRFK] | – | 1.02 mM | 110 s | Mixed | 1.278 mg/mL | 3.43 | – | – | – | – | – | – | – | – | – | – | – |

Second part, led by results:

| pIC50 (B16F10 melanoma cells; Mus musculus, B16-F10, B16F10, α-MSH-induced, reillustrated in molarity, read-out: IC50 for inhibitory effect on melanin content) | IC50 (mushroom tyrosinase [1]) | lag time (mushroom tyrosinase [1]; peptide concentration 1 mg/mL) | Inhibition type (mushroom tyrosinase [2]) | K IS (mushroom tyrosinase [2]) | pKi (mushroom tyrosinase [2]) | lag time (mushroom tyrosinase [1]; peptide concentration 0.5 mg/mL (b28 words it as concentrations less than 0.5 mg/mL)) | inhibition at 1000 µg/mL [3] | Molecule | inhibition at 100 µg/mL (B16F10 melanoma cells; Mus musculus, B16-F10, 0.1 mg/mL, 24 h after 100 nM α-MSH, read-out: inhibitory effect on melanin production) | inhibition at 500 µg/mL (B16F10 melanoma cells; Mus musculus, B16-F10, 0.5 mg/mL, 24 h after 100 nM α-MSH, read-out: inhibitory effect on melanin production) | inhibition at 1000 µg/mL (B16F10 melanoma cells; Mus musculus, B16-F10, 1 mg/mL, 24 h after 100 nM α-MSH, read-out: inhibitory effect on melanin production) | inhibition type on diphenolase (diphenolase) | cytotoxicity in B16F10 cells (B16F10 cells) | inhibitory effect on melanin production (B16F10 melanoma cells; 0.1 mg/mL, 24 h after 100 nM α-MSH) | inhibitory effect on melanin production (B16F10 melanoma cells; 0.5 mg/mL, 24 h after 100 nM α-MSH) | inhibitory effect on melanin production (B16F10 melanoma cells; 1 mg/mL, 24 h after 100 nM α-MSH) | fold stronger than kojic acid in inhibiting melanin formation (B16F10 melanoma cells; ratio of melanin content IC50s (mM)) |
| --- | --- | --- | --- | --- | --- | --- | --- | --- | --- | --- | --- | --- | --- | --- | --- | --- | --- |
| – | 1.22 mM | 70 s | Mixed | 1.685 mg/mL | 3.38 | – | – | Ac-KSSFR-OH [Ac-P3, Ac-KSSFR] | – | – | – | – | – | – | – | – | – |
| – | 1.06 mM | 80 s | Mixed | 2.003 mg/mL | 3.42 | – | – | Ac-KSRFR-OH [Ac-P2, Ac-KSRFR] | – | – | – | – | – | – | – | – | – |
| – | – | 500 s | Mixed | 0.517 mg/mL | – | 80 s | 57.9% | Ac-RSRFS-OH [Ac-P4, Ac-RSRFS] | – | – | – | – | did not induce any significant cytotoxicity | 48.63% | 78.18% | 94.7% | 16.7 fold |
